Source: article PMC7041630 (Experimental neurology, 2018)

Key:
[1] = molecular target: recombinant human WT-LRRK2 (Homo sapiens, UniProt Q5S007); test: LanthaScreen LRRKtide phosphorylation assay, WT-LRRK2; type: biochemical; details: LanthaScreen at Km,app(ATP)
[2] = In-diet dosing, plasma drug levels in rats; type: in vivo, rat; details: chow up to 1050 mg kg−1
WT-LRRK2 = type: in vivo, rat; details: non-transgenic rats; for phospho-LRRK2 in total protein lysates from kidney: higher concentrations of inhibitor; for total LRRK2 protein in the brain: higher concentrations, three days; for total LRRK2 protein in the lung (normalized to HSC70): three days of drug treatment
[3] = Liver microsome stability assay; type: in vitro ADME, macaque; details: 2 μM compound, 0.5 mg mL−1 microsomes, with NADPH, one hour
Drug properties = type: physicochemical
LRRK2 = details: ref Fell et al., 2015, Henderson et al., West; cited from earlier work
[4] = Single-dose IV/PO pharmacokinetics in rats; type: in vivo, rat; details: for bioavailability: oral dosing, 1% methylcellulose vehicle
[5] = test system: pT73-Rab10 in human neutrophils; test: Ex vivo pT73-Rab10 western blot, human neutrophils; type: cell-based; details: 100 nM, two hours
[6] = test system: pT73-Rab10 in human PBMCs; test: Ex vivo pT73-Rab10 western blot, human PBMCs; type: cell-based; details: 100 nM, two hours
[7] = test system: pT73-Rab10 in mouse macrophages; test: Ex vivo pT73-Rab10 western blot, mouse macrophages; type: cell-based; details: 100 nM, two hours

Sequence of recombinant human WT-LRRK2 (Q5S007 whole entry): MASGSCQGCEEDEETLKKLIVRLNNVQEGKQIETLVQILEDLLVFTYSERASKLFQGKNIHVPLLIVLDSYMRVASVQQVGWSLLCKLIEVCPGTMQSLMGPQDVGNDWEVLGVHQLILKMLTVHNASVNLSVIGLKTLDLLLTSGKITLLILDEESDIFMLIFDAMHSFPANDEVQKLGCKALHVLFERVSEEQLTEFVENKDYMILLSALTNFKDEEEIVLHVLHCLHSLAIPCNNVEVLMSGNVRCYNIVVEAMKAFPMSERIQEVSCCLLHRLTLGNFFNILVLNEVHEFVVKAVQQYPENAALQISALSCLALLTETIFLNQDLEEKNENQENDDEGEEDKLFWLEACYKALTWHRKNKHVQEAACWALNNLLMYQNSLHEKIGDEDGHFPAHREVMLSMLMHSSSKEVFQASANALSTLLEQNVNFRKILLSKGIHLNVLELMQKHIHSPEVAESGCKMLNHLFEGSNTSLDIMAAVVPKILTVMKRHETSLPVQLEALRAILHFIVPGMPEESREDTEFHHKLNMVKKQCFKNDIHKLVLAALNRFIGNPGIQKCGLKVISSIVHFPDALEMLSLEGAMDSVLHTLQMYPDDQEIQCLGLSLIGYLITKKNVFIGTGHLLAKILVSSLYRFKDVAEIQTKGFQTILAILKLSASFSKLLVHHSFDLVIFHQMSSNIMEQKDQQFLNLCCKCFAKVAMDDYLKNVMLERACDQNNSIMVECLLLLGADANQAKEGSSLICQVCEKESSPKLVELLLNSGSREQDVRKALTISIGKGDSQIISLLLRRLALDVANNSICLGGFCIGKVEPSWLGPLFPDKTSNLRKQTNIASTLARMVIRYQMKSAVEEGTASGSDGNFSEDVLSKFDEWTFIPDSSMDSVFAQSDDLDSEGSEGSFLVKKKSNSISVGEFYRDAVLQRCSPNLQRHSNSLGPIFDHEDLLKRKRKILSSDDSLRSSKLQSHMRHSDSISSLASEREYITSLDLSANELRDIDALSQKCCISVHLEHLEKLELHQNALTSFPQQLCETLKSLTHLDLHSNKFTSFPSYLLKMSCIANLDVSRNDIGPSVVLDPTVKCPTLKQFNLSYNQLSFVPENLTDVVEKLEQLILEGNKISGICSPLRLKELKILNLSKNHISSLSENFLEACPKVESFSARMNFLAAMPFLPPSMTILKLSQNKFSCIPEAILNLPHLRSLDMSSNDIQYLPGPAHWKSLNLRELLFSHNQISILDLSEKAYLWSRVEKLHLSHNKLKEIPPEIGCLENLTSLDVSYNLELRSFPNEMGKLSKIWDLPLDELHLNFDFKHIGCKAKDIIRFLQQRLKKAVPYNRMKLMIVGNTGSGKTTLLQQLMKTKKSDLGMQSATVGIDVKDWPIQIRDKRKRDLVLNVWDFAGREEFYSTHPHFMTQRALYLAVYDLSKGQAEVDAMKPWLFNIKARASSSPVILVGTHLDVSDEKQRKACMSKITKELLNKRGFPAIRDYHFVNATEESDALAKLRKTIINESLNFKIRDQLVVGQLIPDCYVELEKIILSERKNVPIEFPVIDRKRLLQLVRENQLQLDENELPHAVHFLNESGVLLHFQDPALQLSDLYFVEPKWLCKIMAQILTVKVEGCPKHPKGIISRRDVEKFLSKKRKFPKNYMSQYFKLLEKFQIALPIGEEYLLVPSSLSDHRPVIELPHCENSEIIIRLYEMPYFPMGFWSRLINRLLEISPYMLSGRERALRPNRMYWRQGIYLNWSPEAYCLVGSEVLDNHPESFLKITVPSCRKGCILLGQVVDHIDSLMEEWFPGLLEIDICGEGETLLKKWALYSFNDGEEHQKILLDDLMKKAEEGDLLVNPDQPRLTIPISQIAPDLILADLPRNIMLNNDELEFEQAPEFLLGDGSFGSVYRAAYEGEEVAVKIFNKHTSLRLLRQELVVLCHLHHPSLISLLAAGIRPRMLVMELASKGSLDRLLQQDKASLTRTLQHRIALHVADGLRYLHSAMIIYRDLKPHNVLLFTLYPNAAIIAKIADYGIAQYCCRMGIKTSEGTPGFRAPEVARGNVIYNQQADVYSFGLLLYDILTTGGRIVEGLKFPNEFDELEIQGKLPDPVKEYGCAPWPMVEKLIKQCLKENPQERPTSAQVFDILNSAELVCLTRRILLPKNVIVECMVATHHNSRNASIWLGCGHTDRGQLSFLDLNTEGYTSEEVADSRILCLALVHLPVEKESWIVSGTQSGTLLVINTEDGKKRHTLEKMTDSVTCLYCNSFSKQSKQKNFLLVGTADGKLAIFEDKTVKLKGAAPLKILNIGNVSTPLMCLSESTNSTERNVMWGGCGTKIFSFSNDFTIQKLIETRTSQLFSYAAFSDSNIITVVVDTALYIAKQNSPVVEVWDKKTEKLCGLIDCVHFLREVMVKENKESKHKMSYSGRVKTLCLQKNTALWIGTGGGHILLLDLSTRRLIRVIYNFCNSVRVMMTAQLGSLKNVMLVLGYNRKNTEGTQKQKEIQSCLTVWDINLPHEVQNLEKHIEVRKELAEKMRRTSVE

Compound	more potent in blocking LRRKtide phosphorylation than autophosphorylation [1]	highest plasma concentration achieved with in-diet dosing [2] [nM]	phospho-LRRK2 in total protein lysates from kidney (WT-LRRK2)	total LRRK2 protein in the brain (WT-LRRK2)	total LRRK2 protein in the lung (normalized to HSC70) (WT-LRRK2)	microsomal stability, compound remaining [3]	lipophilicity (Drug properties; compared to MLi2)	binding in vitro (LRRK2)	brain-to-plasma ratio (total compound) [4]	bioavailability [4]	correlation of plasma to brain concentrations (r) ([4]; total compound)	pT73-Rab10 signal [5]	pRab10 signal [6]	pT73-Rab10 signal [7]	aqueous solubility (Drug properties; compared to PF-360)	brain penetrant [4]
Cn1cc(-c2c[nH]c3ncnc(N4CCOCC4)c23)cc1C#N [PF-360]	~ 1 order of magnitude	≤ 100	essentially no phospho-LRRK2 remaining	reduce total LRRK2 protein in the brain nearly to the same extent as reducing the amount of phosphorylated LRRK2 protein	did not reduce	no significant concentrations of compound left after one-hour incubation	lower lipophilicity	low to sub-nanomolar	0.48±0.03	~ 40%	0.89	–	–	–	–	–
C[C@@H]1CN(c2cc(-c3n[nH]c4ccc(OC5(C)CC5)cc34)ncn2)C[C@H](C)O1 [MLi2]	–	–	essentially no phospho-LRRK2 remaining	did not show these trends	did not reduce	no significant concentrations of compound left after one-hour incubation	–	low to sub-nanomolar	–	~ 40%	–	virtually eliminated pT73-Rab10 signal	could not observe a reliable reduction in pRab10	virtually eliminated pT73-Rab10 signal	poor	~ 75%
